One data set deals with Histone deacetylase 4 (Homo sapiens, UniProt P56524). The data set can be described thus: Inhibition of recombinant human HDAC4 using Ac-LGK(TFA)-AMC as substrate pre-incubated for 15 mins followed by substrate addition and measured after 60 mins by fluorescence based assay.
For a further data set, the target named is Histone deacetylase 1 (Homo sapiens, UniProt Q13547). Nature of the data set: Inhibition of recombinant human HDAC1 using Ac-LGK(Ac)-AMC as substrate preincubated for 30 mins followed by substrate addition and measured after 90 mins by fluorescence based assay.
A short description of data set [1]: Metabolic stability in Sprague-Dawley rat liver microsomes assessed as half life at 20 uM preincubated for 5 mins followed by NADPH addition and measured after 60 mins by LCMS analysis. Format: ADME, Microsome. The conditions noted are these: time 65 min. (Microsomes from liver hold many membrane-bound enzymes, among them those of drug oxidation.)
The next data set addresses Histone deacetylase 5 (Homo sapiens, UniProt Q9UQL6). Nature of the data set: Inhibition of recombinant human HDAC5 using Ac-LGK(TFA)-AMC as substrate pre-incubated for 15 mins followed by substrate addition and measured after 60 mins by fluorescence based assay.
A further data set addresses T1, Histone deacetylase 8 (Homo sapiens, UniProt Q9BY41).
T1 sequence (Q9BY41 whole entry): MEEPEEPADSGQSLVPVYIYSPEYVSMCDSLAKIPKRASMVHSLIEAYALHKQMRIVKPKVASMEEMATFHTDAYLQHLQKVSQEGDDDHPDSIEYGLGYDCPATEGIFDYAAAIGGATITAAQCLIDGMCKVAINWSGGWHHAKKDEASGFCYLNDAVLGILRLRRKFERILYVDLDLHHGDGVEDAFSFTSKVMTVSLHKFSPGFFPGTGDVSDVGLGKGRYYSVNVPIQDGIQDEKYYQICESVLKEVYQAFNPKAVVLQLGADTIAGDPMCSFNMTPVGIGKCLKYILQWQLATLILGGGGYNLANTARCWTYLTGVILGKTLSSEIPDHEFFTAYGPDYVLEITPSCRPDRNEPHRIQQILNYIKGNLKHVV
The data set can be described thus: Inhibition of recombinant human HDAC8 using Ac-LGK(TFA)-AMC as substrate preincubated for 30 mins followed by substrate addition and measured after 90 mins by fluorescence based assay.

Another data set concerns the target Histone deacetylase 9 (Homo sapiens, UniProt Q9UKV0). Nature of the data set: Inhibition of recombinant human HDAC9 using Ac-LGK(TFA)-AMC as substrate preincubated for 15 mins followed by substrate addition and measured after 60 mins by fluorescence based assay.
For data set [2], the target named is T2, Class 1 histone deacetylase (Homo sapiens, UniProt Q13547+O15379+Q92769+Q9BY41). Nature of the data set: Inhibition of Class 1 histone deacetylase in human THP-1 cells using Ac-LGK(Ac)-AMC as substrate incubated for 3 hrs followed by 50 uM SAHA addition and measured after 1 hr by fluorescence based assay. Type of data set: cell-based.
Data set [3] in a line: Inhibition of Class 2a histone deacetylase in human THP-1 cells using Ac-LGK(TFA)-AMC as substrate incubated for 3 hrs followed by 50 uM SAHA addition and measured after 1 hr by fluorescence based assay. Format: cell-based.
In data set [4] the target is T2, Class 1 histone deacetylase. Nature of the data set: Inhibition of Class 1 histone deacetylase in human THP-1 cells assessed as accumulation of Histone H4 acetylation levels at 1 to 10 uM incubated for 3 hrs by western blot analysis. Format: cell-based. The conditions noted are these: dose 1-10 µM. On the technique in general: A western blot detects proteins with antibodies after separation by electrophoresis.

In data set [5] the test system is Macrophage. Nature of the data set: Antiinflammatory activity in human monocytes-derived macrophages assessed as inhibition of LPS-induced IL-1alpha secretion at 30 uM pretreated for 1 hr followed by LPS stimulation and measured after 24 hrs by homogenous time-resolved fluorescence assay. Type of data set: functional, cell-based. The conditions noted are these: time 25.0 hrs.

The test system of data set [6] is Macrophage. The data set can be described thus: Antiinflammatory activity in human monocytes-derived macrophages assessed as inhibition of LPS-induced GM-CSF secretion at 30 uM pretreated for 1 hr followed by LPS stimulation and measured after 24 hrs by homogenous time-resolved fluorescence assay. Type of data set: functional, cell-based. The conditions noted are these: time 25.0 hrs.

Data set [7] deals with Macrophage. The data set can be described thus: Antiinflammatory activity in human monocytes-derived macrophages assessed as inhibition of LPS-induced IL-23 secretion at 30 uM pretreated for 1 hr followed by LPS stimulation and measured after 24 hrs by homogenous time-resolved fluorescence assay. Format: functional, cell-based. The conditions noted are these: time 25.0 hrs.

Data set [8] concerns Macrophage. The data set can be described thus: Antiinflammatory activity in human monocytes-derived macrophages assessed as inhibition of LPS-induced IL-6 secretion at 30 uM pretreated for 1 hr followed by LPS stimulation and measured after 24 hrs by homogenous time-resolved fluorescence assay. Type of data set: functional, cell-based. The conditions noted are these: time 25.0 hrs.

In data set [9] the test system is Macrophage. Nature of the data set: Antiinflammatory activity in human monocytes-derived macrophages assessed as inhibition of LPS-induced CCL2 secretion at 30 uM pretreated for 1 hr followed by LPS stimulation and measured after 24 hrs by homogenous time-resolved fluorescence assay. Format: functional, cell-based. The conditions noted are these: time 25.0 hrs.

The subject of data set [10] is Macrophage. Nature of the data set: Antiinflammatory activity in human monocytes-derived macrophages assessed as inhibition of LPS-induced IL-12p40 secretion at 30 uM pretreated for 1 hr followed by LPS stimulation and measured after 24 hrs by homogenous time-resolved fluorescence assay. Format: functional, cell-based. The conditions noted are these: time 25.0 hrs.

Calls of active or inactive are those of the source. No cut-off for these calls is given here.

Histone deacetylase 4, sequence (P56524 whole entry): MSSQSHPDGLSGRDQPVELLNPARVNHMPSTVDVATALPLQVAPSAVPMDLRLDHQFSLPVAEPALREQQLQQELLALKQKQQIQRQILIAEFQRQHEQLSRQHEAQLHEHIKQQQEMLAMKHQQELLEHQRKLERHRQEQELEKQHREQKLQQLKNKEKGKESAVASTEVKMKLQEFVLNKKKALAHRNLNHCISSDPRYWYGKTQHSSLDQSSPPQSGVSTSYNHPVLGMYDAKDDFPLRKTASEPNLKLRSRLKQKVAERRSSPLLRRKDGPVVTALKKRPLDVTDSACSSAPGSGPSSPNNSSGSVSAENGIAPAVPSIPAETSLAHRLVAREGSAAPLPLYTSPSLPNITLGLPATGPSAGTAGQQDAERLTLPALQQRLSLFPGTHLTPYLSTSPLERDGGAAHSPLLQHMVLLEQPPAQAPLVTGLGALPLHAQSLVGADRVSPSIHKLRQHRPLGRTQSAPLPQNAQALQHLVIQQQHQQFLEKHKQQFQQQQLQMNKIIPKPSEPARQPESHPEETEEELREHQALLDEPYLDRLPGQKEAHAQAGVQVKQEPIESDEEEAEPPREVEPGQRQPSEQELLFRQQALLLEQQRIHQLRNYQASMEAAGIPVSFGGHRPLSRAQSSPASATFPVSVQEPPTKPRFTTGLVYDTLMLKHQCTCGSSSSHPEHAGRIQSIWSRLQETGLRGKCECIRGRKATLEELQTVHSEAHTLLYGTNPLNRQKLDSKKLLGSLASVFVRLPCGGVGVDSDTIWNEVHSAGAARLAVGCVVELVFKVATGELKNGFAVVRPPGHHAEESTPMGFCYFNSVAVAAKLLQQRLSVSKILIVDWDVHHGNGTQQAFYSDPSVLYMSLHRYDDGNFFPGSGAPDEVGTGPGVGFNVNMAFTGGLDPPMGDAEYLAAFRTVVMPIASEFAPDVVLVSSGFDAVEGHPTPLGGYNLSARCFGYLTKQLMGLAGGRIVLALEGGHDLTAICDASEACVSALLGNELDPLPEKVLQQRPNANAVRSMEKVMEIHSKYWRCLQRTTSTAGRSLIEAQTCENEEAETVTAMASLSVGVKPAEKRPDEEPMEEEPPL
Histone deacetylase 1, sequence (Q13547 whole entry): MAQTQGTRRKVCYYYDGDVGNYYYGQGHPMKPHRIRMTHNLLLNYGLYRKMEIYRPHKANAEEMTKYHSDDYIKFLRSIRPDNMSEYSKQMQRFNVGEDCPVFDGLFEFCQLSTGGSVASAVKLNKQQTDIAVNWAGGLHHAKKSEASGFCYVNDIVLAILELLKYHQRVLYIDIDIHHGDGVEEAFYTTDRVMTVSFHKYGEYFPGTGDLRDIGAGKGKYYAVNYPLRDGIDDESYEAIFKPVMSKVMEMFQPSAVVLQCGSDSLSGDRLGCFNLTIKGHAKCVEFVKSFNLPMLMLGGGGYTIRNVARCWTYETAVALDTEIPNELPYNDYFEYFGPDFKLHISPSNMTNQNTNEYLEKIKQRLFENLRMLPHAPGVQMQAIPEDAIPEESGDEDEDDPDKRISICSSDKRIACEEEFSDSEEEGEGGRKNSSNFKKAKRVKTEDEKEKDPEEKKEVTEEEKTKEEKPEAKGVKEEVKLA
Histone deacetylase 5, sequence (Q9UQL6 whole entry): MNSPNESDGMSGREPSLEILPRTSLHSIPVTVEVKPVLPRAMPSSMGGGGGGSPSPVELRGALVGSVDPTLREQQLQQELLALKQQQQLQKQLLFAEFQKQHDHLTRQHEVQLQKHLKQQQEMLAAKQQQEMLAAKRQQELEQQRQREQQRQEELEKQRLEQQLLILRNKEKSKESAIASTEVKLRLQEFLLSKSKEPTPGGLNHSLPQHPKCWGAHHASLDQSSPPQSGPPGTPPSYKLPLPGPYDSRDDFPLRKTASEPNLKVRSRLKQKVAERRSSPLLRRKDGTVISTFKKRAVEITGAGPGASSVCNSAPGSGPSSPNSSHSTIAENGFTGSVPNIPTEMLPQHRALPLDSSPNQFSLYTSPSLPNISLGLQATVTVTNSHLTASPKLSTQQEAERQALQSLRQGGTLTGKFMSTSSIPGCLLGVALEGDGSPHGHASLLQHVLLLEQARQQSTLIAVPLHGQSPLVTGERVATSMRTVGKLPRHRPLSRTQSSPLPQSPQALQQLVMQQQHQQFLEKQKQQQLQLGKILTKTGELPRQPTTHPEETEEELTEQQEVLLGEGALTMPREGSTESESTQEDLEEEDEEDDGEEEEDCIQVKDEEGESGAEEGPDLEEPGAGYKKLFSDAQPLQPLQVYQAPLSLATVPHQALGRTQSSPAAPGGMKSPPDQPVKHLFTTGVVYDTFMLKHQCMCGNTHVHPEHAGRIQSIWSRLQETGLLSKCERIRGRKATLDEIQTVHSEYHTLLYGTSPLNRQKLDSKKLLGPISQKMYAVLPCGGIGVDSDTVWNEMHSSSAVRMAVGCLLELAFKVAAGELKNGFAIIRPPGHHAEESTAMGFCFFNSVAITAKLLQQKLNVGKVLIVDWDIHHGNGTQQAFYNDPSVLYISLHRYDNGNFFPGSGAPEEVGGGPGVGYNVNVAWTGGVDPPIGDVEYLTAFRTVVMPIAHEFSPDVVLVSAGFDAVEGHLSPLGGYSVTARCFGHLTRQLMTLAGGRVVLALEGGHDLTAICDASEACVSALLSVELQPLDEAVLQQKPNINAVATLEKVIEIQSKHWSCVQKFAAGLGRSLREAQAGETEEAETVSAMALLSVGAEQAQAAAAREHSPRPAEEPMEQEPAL
Histone deacetylase 9, sequence (Q9UKV0 whole entry): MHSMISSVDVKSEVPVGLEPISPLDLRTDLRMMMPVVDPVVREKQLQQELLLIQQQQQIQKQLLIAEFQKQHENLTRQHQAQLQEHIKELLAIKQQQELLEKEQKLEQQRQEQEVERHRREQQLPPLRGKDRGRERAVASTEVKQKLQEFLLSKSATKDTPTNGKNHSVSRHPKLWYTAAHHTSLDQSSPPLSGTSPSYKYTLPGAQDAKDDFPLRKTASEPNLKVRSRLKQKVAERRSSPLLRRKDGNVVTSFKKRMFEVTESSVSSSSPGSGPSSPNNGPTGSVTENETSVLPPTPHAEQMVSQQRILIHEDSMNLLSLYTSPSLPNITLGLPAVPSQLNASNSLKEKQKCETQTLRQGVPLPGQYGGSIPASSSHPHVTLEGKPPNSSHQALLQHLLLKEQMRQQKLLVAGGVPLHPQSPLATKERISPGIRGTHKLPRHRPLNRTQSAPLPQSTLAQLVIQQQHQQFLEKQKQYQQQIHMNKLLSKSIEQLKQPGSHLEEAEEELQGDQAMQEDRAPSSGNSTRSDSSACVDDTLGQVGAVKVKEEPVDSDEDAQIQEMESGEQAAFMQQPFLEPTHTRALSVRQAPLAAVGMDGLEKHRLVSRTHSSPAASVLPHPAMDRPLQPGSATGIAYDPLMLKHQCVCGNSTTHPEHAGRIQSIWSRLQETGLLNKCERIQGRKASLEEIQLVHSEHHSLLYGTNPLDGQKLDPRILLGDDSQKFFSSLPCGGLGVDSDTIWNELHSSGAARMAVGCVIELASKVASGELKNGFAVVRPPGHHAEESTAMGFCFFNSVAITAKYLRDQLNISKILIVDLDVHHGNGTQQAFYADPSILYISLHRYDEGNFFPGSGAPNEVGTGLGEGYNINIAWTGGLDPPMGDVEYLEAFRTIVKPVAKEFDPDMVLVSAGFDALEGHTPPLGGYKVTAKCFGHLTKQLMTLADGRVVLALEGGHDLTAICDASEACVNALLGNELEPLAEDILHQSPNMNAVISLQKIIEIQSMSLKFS

The IC50 is the midpoint of a concentration-inhibition curve. The term half-life denotes how long it takes for the measured level to halve. Turning to `CC(C)(CNC(=O)c1cccc(-c2noc(C(F)(F)F)n2)c1)c1coc(-c2ccccc2)n1`, the IC50 at Histone deacetylase 4 was 354 nM; at Histone deacetylase 1, 45000 nM; at Histone deacetylase 5, 216 nM; at Histone deacetylase 8, 2100 nM; at Histone deacetylase 9, 16 nM; in data set [2], over 30000 nM. Also, the IC50 in [3] amounted to 3000 nM. Also, the half-life at 20 µM in data set [1] amounted to 46 min. For the same molecule, the inhibition result in [4] is “inactive”. Moreover, the result with Macrophage [5], in the data set with Macrophage [6], with Macrophage [7], in the data set with Macrophage [8] and in the data set with Macrophage [9] was Active. The result with Macrophage [10] was inactive.

For the origin of these results see ChEMBL document CHEMBL4732198, “HDAC7 Inhibition by Phenacetyl and Phenylbenzoyl Hydroxamates” (J Med Chem, 2021).
